Target: T1, T1R2/T1R3 taste receptor (Homo sapiens, UniProt Q8TE23)
T1 sequence (Q8TE23 20-839): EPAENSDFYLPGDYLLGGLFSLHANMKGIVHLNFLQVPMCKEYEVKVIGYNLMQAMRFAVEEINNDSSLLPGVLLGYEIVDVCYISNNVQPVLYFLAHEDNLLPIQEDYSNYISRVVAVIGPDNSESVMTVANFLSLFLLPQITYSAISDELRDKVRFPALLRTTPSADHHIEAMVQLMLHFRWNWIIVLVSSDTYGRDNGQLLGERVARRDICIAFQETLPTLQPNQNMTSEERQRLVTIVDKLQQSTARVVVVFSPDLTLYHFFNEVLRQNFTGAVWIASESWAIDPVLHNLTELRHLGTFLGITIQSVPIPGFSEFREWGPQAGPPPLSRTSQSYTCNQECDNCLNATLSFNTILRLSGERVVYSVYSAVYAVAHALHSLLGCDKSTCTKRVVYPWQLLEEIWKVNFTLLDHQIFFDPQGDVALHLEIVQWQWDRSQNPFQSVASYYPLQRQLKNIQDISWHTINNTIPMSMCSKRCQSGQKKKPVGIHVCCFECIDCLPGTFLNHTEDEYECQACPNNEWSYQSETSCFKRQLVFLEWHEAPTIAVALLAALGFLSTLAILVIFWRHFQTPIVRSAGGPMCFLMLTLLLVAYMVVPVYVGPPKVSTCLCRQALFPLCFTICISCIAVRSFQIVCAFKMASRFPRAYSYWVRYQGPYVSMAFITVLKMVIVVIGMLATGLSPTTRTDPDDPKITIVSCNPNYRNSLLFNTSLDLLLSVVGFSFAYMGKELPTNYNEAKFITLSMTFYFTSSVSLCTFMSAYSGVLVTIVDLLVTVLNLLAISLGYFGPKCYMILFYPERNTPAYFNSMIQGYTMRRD
T1 sequence (Q7RTX0 21-852 partner): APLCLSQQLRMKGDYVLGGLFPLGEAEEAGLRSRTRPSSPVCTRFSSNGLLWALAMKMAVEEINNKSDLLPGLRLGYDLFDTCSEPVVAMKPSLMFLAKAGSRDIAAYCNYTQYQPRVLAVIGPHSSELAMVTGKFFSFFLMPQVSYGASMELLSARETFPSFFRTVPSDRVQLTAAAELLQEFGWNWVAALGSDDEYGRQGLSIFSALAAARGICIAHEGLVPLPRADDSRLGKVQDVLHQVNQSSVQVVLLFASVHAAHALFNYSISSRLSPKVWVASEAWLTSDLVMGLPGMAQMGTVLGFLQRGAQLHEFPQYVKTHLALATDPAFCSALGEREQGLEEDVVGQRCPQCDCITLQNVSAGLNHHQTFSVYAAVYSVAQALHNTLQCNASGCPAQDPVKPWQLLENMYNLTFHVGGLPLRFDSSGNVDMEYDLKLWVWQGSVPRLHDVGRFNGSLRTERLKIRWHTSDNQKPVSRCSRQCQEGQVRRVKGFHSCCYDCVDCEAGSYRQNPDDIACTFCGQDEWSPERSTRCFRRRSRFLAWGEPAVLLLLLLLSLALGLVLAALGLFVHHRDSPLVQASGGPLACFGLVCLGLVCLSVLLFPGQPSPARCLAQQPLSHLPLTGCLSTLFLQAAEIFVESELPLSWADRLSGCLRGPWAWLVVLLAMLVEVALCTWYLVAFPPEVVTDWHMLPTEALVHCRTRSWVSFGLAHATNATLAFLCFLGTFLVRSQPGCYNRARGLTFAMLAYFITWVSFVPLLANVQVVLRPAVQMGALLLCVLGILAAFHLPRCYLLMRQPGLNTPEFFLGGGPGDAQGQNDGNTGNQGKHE
Test: Receptor-based assay: sweetener EC50 alone and with test compound (enhancement ratio)
Format: cell-based
Settings: for Fructose Enhancement EC50 Ratio: sweetener fructose; for Sucralose Enhancement EC50 Ratio: sweetener sucralose; for Sucrose Enhancement EC50 Ratio: sweetener sucrose
Method in brief: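 Sucrose, sucralose or fructose EC50 measured on human T1R2/T1R3, alone and with 3, 10 or 50 μM test compound. Enhancement is the EC50 ratio without/with compound, binned A >20, B 10-20, C >1 to <10.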

| SMILES | Fructose Enhancement EC50 Ratio (10 μM test compound) | Fructose Enhancement EC50 Ratio (50 μM test compound) | Sucralose Enhancement EC50 Ratio (10 μM test compound) | Sucralose Enhancement EC50 Ratio (50 μM test compound) | Sucrose Enhancement EC50 Ratio (3 μM test compound) | Sucrose Enhancement EC50 Ratio (10 μM test compound) | Sucrose Enhancement EC50 Ratio (50 μM test compound) |
| --- | --- | --- | --- | --- | --- | --- | --- |
| NC1=NS(=O)(=O)Nc2cccc(OC[C@H]3CCCN(c4ccc(C(=O)N5CCOCC5)cn4)C3)c21 [Compound 514] | C (A “C” value indicates an enhancement ratio greater than 1 and less than 10) | C (A “C” value indicates an enhancement ratio greater than 1 and less than 10) | A (An “A” value indicates an enhancement ratio of greater than 20) | B (A “B” value indicates an enhancement ratio from 10 to 20) | C (A “C” value indicates an enhancement ratio greater than 1 and less than 10) | C (A “C” value indicates an enhancement ratio greater than 1 and less than 10) | C (A “C” value indicates an enhancement ratio greater than 1 and less than 10) |
| CC(C)CNC(=O)c1ccc(N2CCC[C@H](COc3cccc4c3C(N)=NS(=O)(=O)N4)C2)nc1 [Compound 515] | C (A “C” value indicates an enhancement ratio greater than 1 and less than 10) | C (A “C” value indicates an enhancement ratio greater than 1 and less than 10) | A (An “A” value indicates an enhancement ratio of greater than 20) | A (An “A” value indicates an enhancement ratio of greater than 20) | C (A “C” value indicates an enhancement ratio greater than 1 and less than 10) | C (A “C” value indicates an enhancement ratio greater than 1 and less than 10) | C (A “C” value indicates an enhancement ratio greater than 1 and less than 10) |
| NC1=NS(=O)(=O)Nc2cccc(OC[C@H]3CCCN(c4ccc(C(=O)NCC5CC5)cn4)C3)c21 [Compound 516] |  | C (A “C” value indicates an enhancement ratio greater than 1 and less than 10) | A (An “A” value indicates an enhancement ratio of greater than 20) | A (An “A” value indicates an enhancement ratio of greater than 20) | C (A “C” value indicates an enhancement ratio greater than 1 and less than 10) | C (A “C” value indicates an enhancement ratio greater than 1 and less than 10) | C (A “C” value indicates an enhancement ratio greater than 1 and less than 10) |
| NC1=NS(=O)(=O)Nc2cccc(OC[C@H]3CCCN(c4ccc(C(=O)NCC5CCCCC5)cn4)C3)c21 [Compound 517] |  |  | C (A “C” value indicates an enhancement ratio greater than 1 and less than 10) | B (A “B” value indicates an enhancement ratio from 10 to 20) | C (A “C” value indicates an enhancement ratio greater than 1 and less than 10) | C (A “C” value indicates an enhancement ratio greater than 1 and less than 10) | C (A “C” value indicates an enhancement ratio greater than 1 and less than 10) |
| CNC(=O)c1ccnc(N2CCC[C@H](COc3cccc4c3C(N)=NS(=O)(=O)N4)C2)c1 [Compound 600] |  |  | A (An “A” value indicates an enhancement ratio of greater than 20) | A (An “A” value indicates an enhancement ratio of greater than 20) | C (A “C” value indicates an enhancement ratio greater than 1 and less than 10) |  | B (A “B” value indicates an enhancement ratio from 10 to 20) |
| CCNC(=O)c1ccnc(N2CCC[C@H](COc3cccc4c3C(N)=NS(=O)(=O)N4)C2)c1 [Compound 601] | C (A “C” value indicates an enhancement ratio greater than 1 and less than 10) | C (A “C” value indicates an enhancement ratio greater than 1 and less than 10) |  |  | C (A “C” value indicates an enhancement ratio greater than 1 and less than 10) | C (A “C” value indicates an enhancement ratio greater than 1 and less than 10) | A (An “A” value indicates an enhancement ratio of greater than 20) |
| CCCNC(=O)c1ccnc(N2CCC[C@H](COc3cccc4c3C(N)=NS(=O)(=O)N4)C2)c1 [Compound 602] | C (A “C” value indicates an enhancement ratio greater than 1 and less than 10) | C (A “C” value indicates an enhancement ratio greater than 1 and less than 10) | A (An “A” value indicates an enhancement ratio of greater than 20) | A (An “A” value indicates an enhancement ratio of greater than 20) | C (A “C” value indicates an enhancement ratio greater than 1 and less than 10) | B (A “B” value indicates an enhancement ratio from 10 to 20) |  |
| NC1=NS(=O)(=O)Nc2cccc(OC[C@H]3CCCN(c4cc(C(=O)NCCO)ccn4)C3)c21 [Compound 603] | C (A “C” value indicates an enhancement ratio greater than 1 and less than 10) | C (A “C” value indicates an enhancement ratio greater than 1 and less than 10) | A (An “A” value indicates an enhancement ratio of greater than 20) |  | C (A “C” value indicates an enhancement ratio greater than 1 and less than 10) | B (A “B” value indicates an enhancement ratio from 10 to 20) | C (A “C” value indicates an enhancement ratio greater than 1 and less than 10) |
| COCCNC(=O)c1ccnc(N2CCC[C@H](COc3cccc4c3C(N)=NS(=O)(=O)N4)C2)c1 [Compound 604] |  | C (A “C” value indicates an enhancement ratio greater than 1 and less than 10) | A (An “A” value indicates an enhancement ratio of greater than 20) |  |  |  | B (A “B” value indicates an enhancement ratio from 10 to 20) |
| CN(C)CCNC(=O)c1ccnc(N2CCC[C@H](COc3cccc4c3C(N)=NS(=O)(=O)N4)C2)c1 [Compound 605] | C (A “C” value indicates an enhancement ratio greater than 1 and less than 10) | C (A “C” value indicates an enhancement ratio greater than 1 and less than 10) | A (An “A” value indicates an enhancement ratio of greater than 20) | A (An “A” value indicates an enhancement ratio of greater than 20) | C (A “C” value indicates an enhancement ratio greater than 1 and less than 10) | C (A “C” value indicates an enhancement ratio greater than 1 and less than 10) | B (A “B” value indicates an enhancement ratio from 10 to 20) |
| CC(C)NC(=O)c1ccnc(N2CCC[C@H](COc3cccc4c3C(N)=NS(=O)(=O)N4)C2)c1 [Compound 606] | C (A “C” value indicates an enhancement ratio greater than 1 and less than 10) | C (A “C” value indicates an enhancement ratio greater than 1 and less than 10) | A (An “A” value indicates an enhancement ratio of greater than 20) | A (An “A” value indicates an enhancement ratio of greater than 20) | C (A “C” value indicates an enhancement ratio greater than 1 and less than 10) | B (A “B” value indicates an enhancement ratio from 10 to 20) | C (A “C” value indicates an enhancement ratio greater than 1 and less than 10) |

From patent US11945813B2, “5-substituted 4-amino-1H-benzo[c][1,2,6]thiadiazine 2,2-dioxides and formulations and uses thereof” (Firmenich Incorporated, priority 2018, dated 2024)
